# Source: patent publication US20190106498A1, “TREATMENT FOR ACUTE MYELOID LEUKEMIA” (priority 2017, published 2019)
# Experiments:
# [1] = system: LSCs; test: CD70 expression on LSCs of AML patients treated with HMA; assay type: in vivo, human; conditions: newly diagnosed AML patients after HMA treatment
# Procedure: (FIG. 2A) Representative FACS plots of CD70 expression on lin-CD90+CD34+CD38− AML stem/progenitor cells after culture in the presence or absence of 0.5 mM decitabine (D) or vehicle (Veh). Isotype: grey; CD70: black. (FIG. 2B) Cell Viability. (FIG. 2C) Fold change ΔMFI CD70 and (FIG. 2D) mRNA CD70 expression (AML: n=9-15; healthy: n=3). (FIG. 2E) Representative FACS plot and (FIG. 2F) fold change ΔMFI CD70 on stem/progenitor cells in the peripheral blood of AML patients at diagnosis and after 1 cycle of decitabine or azacitidine treatment (D(5), 20 mg/kg, daily for 5 days; A(7), 75 mg/m^2, daily for 7 days).
# [2] = system: AML; conditions: aza alone; cited from earlier work
structure (smiles),measurement,setting,value
Nc1ncn([C@@H]2O[C@H](CO)[C@@H](O)[C@H]2O)c(=O)n1 [azacitidine],CD70 expression on LSCs compared to level at diagnosis,[1],increase in CD70 expression
same,response rate,[2],approximately 25%
